Assay results: US9856220B2 (AbbVie Deutschland GmbH & Co. KG, priority 2011, dated 2018)

Experiments:
[1] = biological target: PDE10A (Homo sapiens (Human), UniProt Q9Y233); assay: Measurement of PDE activity (recombinant PDE, cAMP HTRF); assay type: biochemical; conditions: 20 nM cyclic nucleotide substrate, 60 minutes at 29 C
In short: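 Recombinant human PDE10A in 20 mM Tris-HCl pH 7.5, 10 mM MgCl2, 0.1% BSA with 20 nM cyclic nucleotide substrate; reaction 60 min at 29 C after compound preincubation with enzyme. Residual cAMP detected by HTRF (cAMP-d2/anti-cAMP cryptate); IC50 from inhibitor concentration versus PDE activity.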

[2] = Determination of the microsomal half-life / microsomal clearance, rat liver microsomes; assay type: in vitro ADME; conditions: 0.5 μM test substance, 0.25 mg of microsomal protein/ml, pH 7.4, 37° C.
[3] = Determination of the microsomal half-life / microsomal clearance, human liver microsomes; assay type: in vitro ADME; conditions: 0.5 μM test substance, 0.25 mg of microsomal protein/ml, pH 7.4, 37° C.
[4] = tested on: rats; conditions: cited from earlier work
[5] = tested on: rats; conditions: cited from earlier work; remark: listed apart in the source
[6] = tested on: rats; conditions: rat, in vivo; cited from earlier work

Chain of PDE10A (Q9Y233 whole entry, species assumed): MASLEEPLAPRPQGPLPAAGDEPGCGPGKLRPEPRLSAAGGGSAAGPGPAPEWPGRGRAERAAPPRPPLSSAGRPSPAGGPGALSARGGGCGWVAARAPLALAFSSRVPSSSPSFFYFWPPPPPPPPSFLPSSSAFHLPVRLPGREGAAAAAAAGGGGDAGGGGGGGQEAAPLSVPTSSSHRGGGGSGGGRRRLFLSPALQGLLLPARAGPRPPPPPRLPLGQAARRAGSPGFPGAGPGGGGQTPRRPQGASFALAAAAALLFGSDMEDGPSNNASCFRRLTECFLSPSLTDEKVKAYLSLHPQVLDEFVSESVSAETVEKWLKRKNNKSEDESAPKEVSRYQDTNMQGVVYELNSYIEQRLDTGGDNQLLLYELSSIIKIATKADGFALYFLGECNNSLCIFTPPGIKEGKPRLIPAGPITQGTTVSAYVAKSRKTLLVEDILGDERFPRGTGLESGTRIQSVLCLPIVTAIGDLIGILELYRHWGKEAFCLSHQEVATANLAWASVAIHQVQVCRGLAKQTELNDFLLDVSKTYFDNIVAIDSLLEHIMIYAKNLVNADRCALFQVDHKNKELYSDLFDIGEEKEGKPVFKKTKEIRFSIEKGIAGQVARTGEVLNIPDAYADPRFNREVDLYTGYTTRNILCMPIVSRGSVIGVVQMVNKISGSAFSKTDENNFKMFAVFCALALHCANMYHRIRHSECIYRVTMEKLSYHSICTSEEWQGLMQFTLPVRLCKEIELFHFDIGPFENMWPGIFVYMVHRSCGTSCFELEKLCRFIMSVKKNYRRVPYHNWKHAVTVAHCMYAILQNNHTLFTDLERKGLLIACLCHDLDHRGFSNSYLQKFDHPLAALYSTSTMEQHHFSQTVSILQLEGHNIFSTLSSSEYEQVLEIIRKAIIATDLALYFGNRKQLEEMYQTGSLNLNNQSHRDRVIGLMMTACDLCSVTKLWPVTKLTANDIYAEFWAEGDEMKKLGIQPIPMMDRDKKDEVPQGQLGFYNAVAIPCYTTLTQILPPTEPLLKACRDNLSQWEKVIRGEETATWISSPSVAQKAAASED

| Compound | IC50 [1] [nM] | Rat mCl [2] | Human mCl [3] | catalepsy on its own ([4]; compound alone) | cataleptic effect of the D2 receptor antagonist haloperidol ([4]; with haloperidol) | hyperactivity induced by PCP [5] | reduction of amphetamine-induced hyperactivity [6] |
| --- | --- | --- | --- | --- | --- | --- | --- |
| CCC(CC)n1cc(C(=O)NCc2occc2C)c2cc(OC)c(OC)cc2c1=O [Example 267, 6,7-Dimethoxy-N-((3-methylfuran-2-yl)methyl)-1-oxo-2-(pentan-3-yl)-1,2-dihydroisoquinoline-4-carboxamide] | 100 to 200 | ∘ (>220 μl min^−1 mg^−1) | + (100-220 μl min^−1 mg^−1) |  |  |  |  |
| CCn1cc(C(=O)NCc2csc(C)n2)c2cc(OC)c(OC)cc2c1=O [Example 316, 2-Ethyl-6,7-dimethoxy-N-[(2-methylthiazol-4-yl)methyl]-1-oxo-isoquinoline-4-carboxamide] | 200 to 500 | ++ (<100 μl min^−1 mg^−1) | ++ (<100 μl min^−1 mg^−1) |  |  |  |  |
| CCn1cc(C(=O)NCc2cc(C)cs2)c2cc(OC)c(OC)cc2c1=O [Example 317, 2-Ethyl-6,7-dimethoxy-N-[(4-methyl-2-thienyl)methyl]-1-oxo-isoquinoline-4-carboxamide] | 100 to 200 | + (100-220 μl min^−1 mg^−1) | ++ (<100 μl min^−1 mg^−1) |  |  |  |  |
| COc1ccc(Cc2nccc3cc(OC)c(OC)cc23)cc1OC [Papaverine, papaverine] |  |  |  | did not cause catalepsy on its own | potentiated the cataleptic effect | reduced hyperactivity | insignificant |

Further lines, with some results ahead:

| IC50 [1] [nM] | Rat mCl [2] | Human mCl [3] | Compound | catalepsy on its own ([4]; compound alone) | cataleptic effect of the D2 receptor antagonist haloperidol ([4]; with haloperidol) | hyperactivity induced by PCP [5] | reduction of amphetamine-induced hyperactivity [6] |
| --- | --- | --- | --- | --- | --- | --- | --- |
| 200 to 500 | ++ (<100 μl min^−1 mg^−1) | ++ (<100 μl min^−1 mg^−1) | CCc1ccc(CNC(=O)c2cn(CC)c(=O)c3cc(OC)c(OC)cc23)cc1 [Example 313, 2-Ethyl-N-[(4-ethylphenyl)methyl]-6,7-dimethoxy-1-oxo-isoquinoline-4-carboxamide] |  |  |  |  |
| 200 to 500 | ++ (<100 μl min^−1 mg^−1) | ++ (<100 μl min^−1 mg^−1) | CCn1cc(C(=O)NCc2ccc(C3CC3)cc2)c2cc(OC)c(OC)cc2c1=O [Example 318, N-[(4-Cyclopropylphenyl)methyl]-2-ethyl-6,7-dimethoxy-1-oxo-isoquinoline-4-carboxamide] |  |  |  |  |
